Source: patent US20140227303A1, “METHODS FOR DIAGNOSING AND MONITORING DISEASES OR CONDITIONS USING DISEASE MODIFIED BIOMOLECULES AND MEASUREMENT OF A FUNCTIONAL IMMUNE RESPONSE” (VIRACOR-IBT LABORATORIES, priority 2011, published 2014)
Entries after “also recorded” stand apart in the source; their conditions may differ. Read-outs that look alike come from different tables or passages of the source. Square brackets hold non-standard residues; d marks the D form. Ends that are not written are not given here. Peptide text beside a SMILES is read from it. Cit = NC(=O)NCCC[C@H](N)C(=O)O

Assays:
[1] = Peptide solubility in water; assay type: physicochemical
PBMCs = assay: Cellular stimulation assay: PBMCs incubated with individual peptides DMB 1011 to DMB 1016, TNFα and IL6 by AlphaLisa; assay type: cell-based, human; conditions: for Stimulation response of peptides with same sequence but only one or two citrullines (in words): compared with fully citrullinated peptide; for Stimulation of cells to produce TNF and IL-6 (in words): fibrinogen based peptides with 3 citrulline residues
Protocol: Experiment 2. Cytokine Production after PBMC Stimulation Using Individual Peptides from DMB 1011 to DMB 1016
Experimental setting: Peripheral blood mononuclear cells (PBMCs) were prepared from freshly collected blood using a Ficoll gradient method. The cellular stimulation assay was performed by incubating PBMCs with individual peptides DMB 1011 to DMB 1016. Approximately 300,000 to 500,000 PBMC cells were used for each stimulation assay in a cell culture AIM V serum free medium (Life Technologies) within a 96 well round bottom plate. Concentrations of TNFα and IL6 in culture supernatants were determined after 20 hrs incubation using the AlphaLisa® method.

PBMCs from RA patients = assay: Cellular stimulation assay: PBMCs incubated with individual peptides DMB 1001-DMB 1010, cytokines in supernatant by AlphaLisa; assay type: cell-based, human; conditions: peptide 10 μg/ml, 20 hrs incubation
Protocol: Experiment 1: Cytokine Production after Stimulation of PBMCs from RA Patients with Individual Peptides DMB 1001-DMB 1010
Experimental setting: Peripheral blood mononuclear cells (PBMCs) were prepared from freshly collected blood using a Ficoll gradient method. The cellular stimulation assay was performed by incubation of PBMCs with the individual peptides DMB 1001-DMB 1010 at a concentration of 10 μg/ml. Approximately 300,000 to 500,000 PBMC cells were used for each stimulation assay in a cell culture AIM V serum free medium (Life Technologies) within a 96 well round bottom plate. TNFα, IL6 and IL1b concentrations in culture supernatants were determined using the AlphaLisa® method after 20 hrs of incubation.

| Compound | TNFα concentration in culture supernatant (PBMCs from RA patients; PBMC Sample 1) [pg/mL] | TNFα concentration in culture supernatant (PBMCs from RA patients; PBMC Sample 2) [pg/mL] | other results |
| --- | --- | --- | --- |
| CC(C)C[C@H](NC(=O)[C@H](CCCNC(N)=O)NC(=O)[C@@H](NC(=O)[C@H](C)NC(=O)[C@H](CO)NC(=O)[C@H](CO)NC(=O)[C@H](CCCNC(N)=O)NC(=O)[C@@H](NC(=O)[C@H](C)NC(=O)[C@H](Cc1ccc(O)cc1)NC(=O)[C@@H](N)C(C)C)[C@@H](C)O)C(C)C)C(=O)N[C@@H](CCCNC(N)=O)C(=O)N[C@@H](CO)C(=O)N[C@@H](CO)C(=O)N[C@H](C(=O)N1CCC[C@H]1C(=O)O)C(C)C [DMB 1001, VYAT[Cit]SSAV[Cit]L[Cit]SSVP] (H-VYAT[Cit]SSAV[Cit]L[Cit]SSVP-OH; N-terminus and C-terminus assumed) | – | – | Water solubility (in words) [1]: not water soluble |
| CC(C)C[C@H](NC(=O)[C@H](CCCNC(N)=O)NC(=O)[C@@H](NC(=O)[C@H](C)NC(=O)[C@H](CO)NC(=O)[C@H](CO)NC(=O)[C@H](CCCNC(N)=O)NC(=O)[C@@H](NC(=O)[C@H](C)NC(=O)[C@H](Cc1ccc(O)cc1)NC(=O)[C@@H](NC(=O)CNC(=O)CN)C(C)C)[C@@H](C)O)C(C)C)C(=O)N[C@@H](CCCNC(N)=O)C(=O)N[C@@H](CO)C(=O)N[C@@H](CO)C(=O)N[C@H](C(=O)N1CCC[C@H]1C(=O)O)C(C)C [DMB 1011, GGVYAT[Cit]SSAV[Cit]L[Cit]SSVP] | – | – | Water solubility (in words) [1]: improved the peptide solubility in water; also recorded: water soluble; Water solubility (in words) ([1]; listed as SEQ ID NO: 11): increases the water solubility |
| GGVYATRSSAV[Cit]LRSSVP [DMB 1014] | – | – | Stimulation response of peptides with same sequence but only one or two citrullines (in words) (PBMCs): greatly diminished; Stimulation of cells to produce TNF and IL-6 (in words) (PBMCs): failed to stimulate cells |
| GGVYATRSSAV[Cit]L[Cit]SSVP [DMB 1013] | – | – | Stimulation response of peptides with same sequence but only one or two citrullines (in words) (PBMCs): greatly diminished |
| GGVYAT[Cit]SSAVRL[Cit]SSVP [DMB 1012] | – | – | Stimulation response of peptides with same sequence but only one or two citrullines (in words) (PBMCs): greatly diminished |
| GGV[Cit]GP[Cit]VVE[CIT]HQSACKD (GGV[Cit]GP[Cit]VVE[Cit]HQSACKD) [DMB 1015] | – | – | Stimulation of cells to produce TNF and IL-6 (in words) (PBMCs): failed to stimulate cells |
| GPRVVERHQSACKDS [DMB 1008, Fibrinogen alpha chain peptide, not citrullinated] | 7.1 | 7.5 | – |
| GP[Cit]VVE[Cit]HQSACKDS [DMB 1007] | 4.3 | 4.6 | – |
| HQCHQESTRGRSRGRCGRSGS [DMB 1006, Filaggrin peptide, not citrullinated] | 2.7 | 7.6 | – |
| HQCHQEST[Cit]GRSRGRCGRSGS (cysteine pairing not given here) [DMB 1005] | 2.1 | 3.6 | – |
| KIHAREIFDSRGNPTVE [DMB 1010, Alpha enolase peptide, not citrullinated] | 2.3 | 3.6 | – |
| KIHA[Cit]EIFDS[Cit]GNPTVE [DMB 1009] | 5.0 | 6.4 | – |
| NEEGFFSARGHRPLDKK [DMB 1004, Fibrinogen beta chain peptide, not citrullinated] | 2.5 | 6.7 | – |
| NEEGFFSA[Cit]GHRPLDKK [DMB 1003] | 4.1 | 2.2 | – |
| VYATRSSAVRLRSSVP [DMB 1002, Vimentin-derived peptide, not citrullinated] | 7.7 | 2.7 | IL1b concentration in cell culture (PBMCs from RA patients; PBMC Sample 1): 1; IL6 concentration in cell culture (PBMCs from RA patients; PBMC Sample 1): 0; IL1b concentration in cell culture (PBMCs from RA patients; PBMC Sample 2): 0; IL6 concentration in cell culture (PBMCs from RA patients; PBMC Sample 2): 0 |
| lipopolysaccharide [LPS, reference compound] | 1708.9 | 508.9 | – |
